Measured values taken from patent US10030025B2, “Substituted [1,2,4]triazolo[4,3-a]pyrazines as selective NK-3 receptor antagonists” (EUROSCREEN SA, priority 2013, dated 2018).

Tests used:
[1] = system: circulating levels of luteinizing hormone (LH); assay: Castrated male rat model, circulating luteinizing hormone (LH); format: in vivo; conditions: castrated male SD rats, single oral dose less than or equal to 30 mg/kg, p<0.05
Procedure: Castrated male rat model to assess the effect of compound of invention on circulating levels of luteinizing hormone (LH)
The effect of compounds of the invention to inhibit luteinizing hormone (LH) secretion is determined by the following biological studies.
In humans and rodents, castration is well-precedented to permit heightened, persistent GnRH signaling and consequent elevation of circulating LH. Thus, a castrated rat model is used to provide a broad index for measurement of LH inhibition as a marker of test compound inhibition of the GnRH signaling pathway.
Castrated adult male Sprague-Dawley (SD) rats (150-175 g) were purchased from Janvier (St Berthevin, France). All animals were housed 2 per cage in a temperature-controlled room (22±2° C.) and 50±5% relative humidity with a 12 hour/12 hour light/dark cycles (lights off at 6h00 pm). The animals were allowed 3 weeks of postoperative recovery prior to study. Animals were handled on a daily basis. Standard diet and tap water were provided ad libitum. Animal cage litters were changed once a week. On the study day, animals were acclimated to the procedure room for a period of one hour prior to the initiation of the experiment.
Compounds of the invention were formulated in 0.5% methyl cellulose.
After basal sampling (T0) a single dose of compounds of the invention or vehicle was administrated orally to rats. Blood samples were then collected at several time points post dosing (45, 90, 150, 300 and 420 minutes). Blood samples were obtained via tail vein bleed, drawn into EDTA-containing tubes and centrifuged immediately. Plasma samples were collected and stored in a −80° C. freezer until assayed. Serum LH levels were determined using radioimmunoassay kit from RIAZEN—Rat LH, Zentech (Liège, Belgium). Baseline was defined as the initial basal blood sample.

[2] = system: plasma testosterone; assay: Plasma testosterone in gonad intact male rats; format: in vivo, rat; conditions: gonad intact male SD rats, 3 mg/kg single oral administration, vs vehicle, over the test period
Procedure: The study was designed to evaluate the effect of compounds of the invention on testosterone circulating levels following oral administration at 3 mg/kg on SD gonad intact male rats.
Two groups of non-fasted rats (male, Sprague-Dawley, 200 to 225 g; n=4 rats/group) with jugular vein cannulation, were dosed via a single oral administration of compounds of the invention at 3 mg/kg. The control group was dosed with the vehicle. Compounds of the invention were prepared in a dose formulation of pyrogen-free water with 0.5% methylcellulose. Blood samples were collected via the catheter implanted in the jugular vein at pre-determined intervals using EDTA-3K as anti-coagulant. Samples were chilled and rapidly processed by centrifugation to obtain corresponding plasma samples. Testosterone hormone levels were determined by RIA performed on plasma samples collected for all the groups at 5 minutes before administration (basal time), and at 45, 90, 150, 300, 480 minutes and 24 hours after dosing.

[3] = system: plasma estradiol levels; assay: Estradiol circulating level in female rats; format: in vivo, rat; conditions: adult female rats, 10 mg/kg b.i.d. oral, 10 days, two consecutive estrous cycles
Procedure: The aim of this study was to evaluate the effect of compounds of the invention on plasma estradiol levels following oral administration at 10 mg/kg (b.i.d.) for a period of 10 days in female rats.
Two groups of adult, female rats (Sprague-Dawley, ˜320 g) were treated in-phase with their individual estrous cycles. Thus, treatment was started in the proestrus phase (coincident with peak estradiol levels, as shown on Day 1 in FIG. 3) and rats were dosed twice daily (˜9h30 and 17h30) by oral administration either with a compound of the invention at 10 mg/kg or with the vehicle for the control group. Compounds of the invention were prepared in a dose formulation of pyrogen-free water with 0.5% methylcellulose. Estradiol levels were determined for all groups by ELISA performed on plasma samples derived from blood collections taken at 30 minutes before the daily, 9h30 test article administration on all days presented in FIG. 3.

[4] = system: body temperature; assay: Thermoregulation in ovariectomized (OVX) ewes; format: in vivo, ewe; conditions: 1 mg/kg intravenous bolus
From the text: After 4 months recovery, animals were acclimatised to housing in single pens for a period of 7 days with ad libitum access to water and […] lucerne hay. One day prior to experimentation, the animals received a jugular vein cannula ([…], Tuta Laboratories, Lane Cove, Australia). The cannulae were kept patent with heparinised saline. On the day of the experiment, compound no 5 of the present invention was formulated in physiological saline with 9% 2-hydroxypropyl-β-cyclodextrin at a concentration of 2 mg/mL. Compound no 5 (1 mg/kg, N=5) or vehicle (N=5) was administered at 11h00 by intravenous bolus injection at a dose volume of 0.5 mL/kg through the jugular cannula and the injected material was flushed into the animal with 5 mL of heparinised saline. Animals were fed at 12h00. Rectal temperatures were monitored with a probe at hourly intervals throughout the experiment, starting at 7h40 and concluding at 15h40. […] However, this pyrogenic response to feeding in ovarectomized ewes was not observed in any animals treated with compound no 5. […] Graphical data presented as mean±SEM for vehicle-treated versus compound no 5-treated ewes (N=5/group). Statistical analyses performed by 2-way ANOVA followed by Sidak's Multiple Comparisons Test between treatment groups at the indicated time interval, *p<0.05.

Row | SMILES | Effect on circulating LH levels [1] | other results
1 | Cc1nsc(-c2nnc3n2CCN(C(=O)c2ccc(Cl)c(Cl)c2)[C@@H]3C)n1 [Compound 1, (R)-(3,4-dichlorophenyl)(8-methyl-3-(3-methyl-1,2,4-thiadiazol-5-yl)-5,6-dihydro-[1,2,4]triazolo[4,3-a]pyrazin-7(8H)-yl)methanone] | significantly suppressed circulating LH levels | –
2 | CCc1nsc(-c2nnc3n2CCN(C(=O)c2ccc(F)cc2)[C@@H]3C)n1 [Compound 2, (R)-(3-(3-ethyl-1,2,4-thiadiazol-5-yl)-8-methyl-5,6-dihydro-[1,2,4]triazolo[4,3-a]pyrazin-7(8H)-yl)(4-fluorophenyl)methanone] | significantly suppressed circulating LH levels | –
3 | Cc1nsc(-c2nnc3n2CCN(C(=O)c2ccc(Cl)c(F)c2)[C@@H]3C)n1 [Compound 4, (R)-(4-chloro-3-fluorophenyl)(8-methyl-3-(3-methyl-1,2,4-thiadiazol-5-yl)-5,6-dihydro-[1,2,4]triazolo[4,3-a]pyrazin-7(8H)-yl)methanone] | significantly suppressed circulating LH levels | –
4 | Cc1nsc(-c2nnc3n2CCN(C(=O)c2ccc(F)cc2)[C@@H]3C)n1 [Compound 5, (R)-(4-fluorophenyl)(8-methyl-3-(3-methyl-1,2,4-thiadiazol-5-yl)-5,6-dihydro-[1,2,4]triazolo[4,3-a]pyrazin-7(8H)-yl)methanone] | significantly suppressed circulating LH levels | Effect on plasma testosterone level [2]: significantly suppressed plasma testosterone level; Effect on estradiol levels [3]: significantly decreased estradiol levels; Pyrogenic response to feeding [4]: not observed
5 | Cc1nsc(-c2nnc3n2CCN(C(=O)c2ccc(F)c(F)c2F)[C@@H]3C)n1 [Compound 8, (R)-(8-methyl-3-(3-methyl-1,2,4-thiadiazol-5-yl)-5,6-dihydro-[1,2,4]triazolo[4,3-a]pyrazin-7(8H)-yl)(2,3,4-trifluorophenyl)methanone] | significantly suppressed circulating LH levels | –
6 | Cc1nsc(-c2nnc3n2CCN(C(=O)c2ccc(F)c(F)c2)[C@@H]3C)n1 [Compound 9, (R)-(3,4-difluorophenyl)(8-methyl-3-(3-methyl-1,2,4-thiadiazol-5-yl)-5,6-dihydro-[1,2,4]triazolo[4,3-a]pyrazin-7(8H)-yl)methanone] | significantly suppressed circulating LH levels | –
7 | CCc1noc(-c2nnc3n2CCN(C(=O)c2ccc(F)cc2)[C@@H]3C)n1 [Compound 13, (R)-(3-(3-ethyl-1,2,4-oxadiazol-5-yl)-8-methyl-5,6-dihydro-[1,2,4]triazolo[4,3-a]pyrazin-7(8H)-yl)(4-fluorophenyl)methanone] | significantly suppressed circulating LH levels | –
8 | Cc1nsc(-c2nnc3n2CCN(C(=O)c2ccccc2)[C@@H]3C)n1 [Compound 20, (R)-(8-methyl-3-(3-methyl-1,2,4-thiadiazol-5-yl)-5,6-dihydro-[1,2,4]triazolo[4,3-a]pyrazin-7(8H)-yl)(phenyl)methanone] | significantly suppressed circulating LH levels | –
9 | CCc1noc(-c2nnc3n2CCN(C(=O)c2ccc(-c4cccs4)cc2)[C@@H]3C)n1 [Compound 30, (R)-(3-(3-ethyl-1,2,4-oxadiazol-5-yl)-8-methyl-5,6-dihydro-[1,2,4]triazolo[4,3-a]pyrazin-7(8H)-yl)(4-(thiophen-2-yl)phenyl)methanone] | significantly suppressed circulating LH levels | –
